Reference: patent publication US8673894B2 (Hoffmann-La Roche Inc., priority 2010, dated 2014)
Structures can show the parent of a compound that is named as a salt.

Columns and labels:
[1] = target: T1, endogenous cellular BACE2 (Rattus norvegicus, UniProt Q6IE75); assay: Assay for BACE inhibition by measuring cellular TMEM27 cleavage; assay type: cell-based; settings: INS-TMEM27 (INS1e-derived) cells, shed human TMEM27 in supernatant by ELISA
T1 construct: endogenous cellular BACE2 in the Ins1e rat cell line; endogenous in cells; host or cells: INS-TMEM27 (INS1e-derived rat insulinoma cell line with doxycycline-inducible full-length human TMEM27)
T1 sequence (Q6IE75 63-514): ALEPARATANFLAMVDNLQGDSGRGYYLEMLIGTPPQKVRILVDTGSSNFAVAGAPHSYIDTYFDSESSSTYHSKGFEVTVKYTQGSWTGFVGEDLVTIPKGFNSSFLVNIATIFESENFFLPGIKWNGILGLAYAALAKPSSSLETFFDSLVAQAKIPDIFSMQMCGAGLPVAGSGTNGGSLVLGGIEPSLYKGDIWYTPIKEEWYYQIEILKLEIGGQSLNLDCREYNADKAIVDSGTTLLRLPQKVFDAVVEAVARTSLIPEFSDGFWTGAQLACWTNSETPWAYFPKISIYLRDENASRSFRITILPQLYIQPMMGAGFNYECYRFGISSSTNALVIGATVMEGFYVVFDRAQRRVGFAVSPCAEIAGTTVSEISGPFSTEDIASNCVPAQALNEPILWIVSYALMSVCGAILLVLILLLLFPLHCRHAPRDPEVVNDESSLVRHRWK
Summary of the method: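 INS1e rat cells with doxycycline-inducible human TMEM27 get inhibitor 2 h before doxycycline (500 ng/ml final), then 46 h further at 37° C. Shed TMEM27 in the supernatant is measured by sandwich ELISA, and the EC50 comes from a curve fit of the ELISA signal.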

Aβ40 = assay: Cellular Aβ-lowering assay; assay type: cell-based; settings: HEK293 cells stably expressing human APP695, Aβ40 in supernatant by ELISA after 18-20 hrs; read-out: Cellular assay Abeta40 IC50
Summary of the method: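 HEK293 cells stably expressing human wild-type APP695 were treated with compound for 18-20 h at 37 °C in 0.8% v/v DMSO. Secreted Aβ40 in the supernatant was measured by sandwich ELISA (Aβ40 C-terminus-specific capture, HRP-4G8 detection, TMB read at 450 nm) and quantified against a pure Aβ peptide standard curve.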

SMILES	IC50 [1] [nM]	IC50 (Aβ40) [nM]
CCn1cc(Cl)c(C(=O)Nc2ccc(F)c([C@@]3(CC)N=C(N)COCC3(F)F)c2)n1 [Example 91, (R)-N-(3-(3-Amino-5-ethyl-6,6-difluoro-2,5,6,7-tetrahydro-1,4-oxazepin-5-yl)-4-fluorophenyl)-4-chloro-1-ethyl-1H-pyrazole-3-carboxamide]	453	1230
CC[C@]1(c2cc(NC(=O)c3n[nH]cc3C)ccc2F)N=C(N)COCC1(F)F [Example 92, (R)-N-(3-(3-Amino-5-ethyl-6,6-difluoro-2,5,6,7-tetrahydro-1,4-oxazepin-5-yl)-4-fluorophenyl)-4-methyl-1H-pyrazole-3-carboxamide]	731	2800
CCc1n[nH]c(C(=O)Nc2ccc(F)c([C@@]3(CC)N=C(N)COCC3(F)F)c2)c1C [Example 93, (R)-N-(3-(3-Amino-5-ethyl-6,6-difluoro-2,5,6,7-tetrahydro-1,4-oxazepin-5-yl)-4-fluorophenyl)-3-ethyl-4-methyl-1H-pyrazole-5-carboxamide]	155000	510
Cc1ccc(C(=O)Nc2ccc(F)c([C@@]3(C)N=C(N)COCC3(F)F)c2)nc1 [Example 94, (R)-N-(3-(3-Amino-6,6-difluoro-5-methyl-2,5,6,7-tetrahydro-1,4-oxazepin-5-yl)-4-fluorophenyl)-5-methylpicolinamide formate]	24.3	10
CCn1cc(Cl)c(C(=O)Nc2ccc(F)c([C@@]3(C)N=C(N)COCC3(F)F)c2)n1 [Example 95, (R)-N-(3-(3-Amino-6,6-difluoro-5-methyl-2,5,6,7-tetrahydro-1,4-oxazepin-5-yl)-4-fluorophenyl)-4-chloro-1-ethyl-1H-pyrazole-3-carboxamide]	66.3	22
C[C@]1(c2cc(NC(=O)c3n[nH]cc3Cl)ccc2F)N=C(N)COCC1(F)F [Example 96, (R)-N-(3-(3-amino-6,6-difluoro-5-methyl-2,5,6,7-tetrahydro-1,4-oxazepin-5-yl)-4-fluorophenyl)-4-chloro-1H-pyrazole-3-carboxamide]	295	57
Cc1c[nH]nc1C(=O)Nc1ccc(F)c([C@@]2(C)N=C(N)COCC2(F)F)c1 [Example 97, (R)-N-(3-(3-Amino-6,6-difluoro-5-methyl-2,5,6,7-tetrahydro-1,4-oxazepin-5-yl)-4-fluorophenyl)-4-methyl-1H-pyrazole-3-carboxamide]	444	220
Cc1ocnc1C(=O)Nc1ccc(F)c([C@@]2(C)N=C(N)COCC2(F)F)c1 [Example 98, (R)-N-(3-(3-Amino-6,6-difluoro-5-methyl-2,5,6,7-tetrahydro-1,4-oxazepin-5-yl)-4-fluorophenyl)-5-methyloxazole-4-carboxamide]	131	39
CCc1ocnc1C(=O)Nc1ccc(F)c([C@@]2(C)N=C(N)COCC2(F)F)c1 [Example 99, (R)-N-(3-(3-Amino-6,6-difluoro-5-methyl-2,5,6,7-tetrahydro-1,4-oxazepin-5-yl)-4-fluorophenyl)-5-ethyloxazole-4-carboxamide]	118	130
CC[C@]1(c2cc(NC(=O)c3nc[nH]c3C)ccc2F)N=C(N)COCC1(F)F [Example 100, (R)-N-(3-(3-Amino-5-ethyl-6,6-difluoro-2,5,6,7-tetrahydro-1,4-oxazepin-5-yl)-4-fluorophenyl)-5-methyl-1H-imidazole-4-carboxamide]	516	2800
C[C@]1(c2cc(NC(=O)c3cnc(C(F)(F)F)cn3)ccc2F)N=C(N)COCC1(F)F [Example 101, (R)-N-(3-(3-Amino-6,6-difluoro-5-methyl-2,5,6,7-tetrahydro-1,4-oxazepin-5-yl)-4-fluorophenyl)-5-(trifluoromethyl)pyrazine-2-carboxamide formate]	1110	12
CC[C@]1(c2cc(NC(=O)c3ncc(F)cc3C)ccc2F)N=C(N)COCC1(F)F [Example 102, (R)-N-(3-(3-Amino-5-ethyl-6,6-difluoro-2,5,6,7-tetrahydro-1,4-oxazepin-5-yl)-4-fluorophenyl)-5-fluoro-3-methylpicolinamide]	2200	33
C[C@]1(c2cc(NC(=O)c3cnc(OCF)cn3)ccc2F)N=C(N)COCC1(F)F [Example 103, (R)-N-(3-(3-Amino-6,6-difluoro-5-methyl-2,5,6,7-tetrahydro-1,4-oxazepin-5-yl)-4-fluorophenyl)-5-(fluoromethoxy)pyrazine-2-carboxamide formate]	307	2.9
Cc1conc1C(=O)Nc1ccc(F)c([C@@]2(C)N=C(N)COCC2(F)F)c1 [Example 104, (R)-N(R)-N-(3-(3-Amino-6,6-difluoro-5-methyl-2,5,6,7-tetrahydro-1,4-oxazepin-5-yl)-4-fluorophenyl)-4-methylisoxazole-3-carboxamide]	95.6	160
C[C@]1(c2cc(NC(=O)c3cnc(C(F)F)cn3)ccc2F)N=C(N)COCC1(F)F [Example 105, (R)-N-(3-(3-Amino-6,6-difluoro-5-methyl-2,5,6,7-tetrahydro-1,4-oxazepin-5-yl)-4-fluorophenyl)-5-(difluoromethyl)pyrazine-2-carboxamide formate]	378	13
C[C@]1(c2cc(NC(=O)c3nn(CC(F)(F)F)cc3Cl)ccc2F)N=C(N)COCC1(F)F [Example 106, (R)-N-(3-(3-Amino-6,6-difluoro-5-methyl-2,5,6,7-tetrahydro-1,4-oxazepin-5-yl)-4-fluorophenyl)-4-chloro-1-(2,2,2-trifluoroethyl)-1H-pyrazole-3-carboxamide]	2170	630
CCc1n[nH]c(C(=O)Nc2ccc(F)c([C@@]3(C)N=C(N)COCC3(F)F)c2)c1C [Example 107, (R)-N-(3-(3-Amino-6,6-difluoro-5-methyl-2,5,6,7-tetrahydro-1,4-oxazepin-5-yl)-4-fluorophenyl)-3-ethyl-4-methyl-1H-pyrazole-5-carboxamide]	886	790
C[C@]1(c2cc(NC(=O)c3ccc(C(F)F)cn3)ccc2F)N=C(N)COCC1(F)F [Example 108, (R)-N-(3-(3-Amino-6,6-difluoro-5-methyl-2,5,6,7-tetrahydro-1,4-oxazepin-5-yl)-4-fluorophenyl)-5-(difluoromethyl)picolinamide formate]	49.5	5.7
COc1cnc(C(=O)Nc2ccc(F)c([C@@]3(C)N=C(N)COCC3(F)F)c2)cn1 [Example 109, (R)-N-(3-(3-Amino-6,6-difluoro-5-methyl-2,5,6,7-tetrahydro-1,4-oxazepin-5-yl)-4-fluorophenyl)-5-methoxypyrazine-2-carboxamide formate]	143	1.9
CC1(C)OCC(N)=N[C@](C)(c2cc(NC(=O)c3ccc(Cl)cn3)ccc2F)C1(F)F [Example 110, (R)-N-(3-(3-amino-6,6-difluoro-5,7,7-trimethyl-2,5,6,7-tetrahydro-1,4-oxazepin-5-yl)-4-fluorophenyl)-5-chloropicolinamide]	9.03	0.8
CC1(C)OCC(N)=N[C@](C)(c2cc(NC(=O)c3ccc(C#N)cn3)ccc2F)C1(F)F [Example 111, (R)-N-(3-(3-amino-6,6-difluoro-5,7,7-trimethyl-2,5,6,7-tetrahydro-1,4-oxazepin-5-yl)-4-fluorophenyl)-5-cyanopicolinamide]	30.5	0.7
C[C@]1(c2cc(NC(=O)c3ncccc3OCC(F)(F)F)ccc2F)N=C(N)COC[C@@H]1F [Example 112, N-(3-((5R,6R)-3-amino-6-fluoro-5-methyl-2,5,6,7-tetrahydro-1,4-oxazepin-5-yl)-4-fluorophenyl)-3-(2,2,2-trifluoroethoxy)picolinamide]	129	69
Cc1nc(C(=O)Nc2ccc(F)c([C@@]3(C)N=C(N)COCC3(F)F)c2)c(C(F)(F)F)o1 [Example 113, (R)-N-(3-(3-Amino-6,6-difluoro-5-methyl-2,5,6,7-tetrahydro-1,4-oxazepin-5-yl)-4-fluorophenyl)-2-methyl-5-(trifluoromethyl)oxazole-4-carboxamide]	123	35.8
C[C@]1(c2cc(NC(=O)c3nn(C(F)F)cc3Cl)ccc2F)N=C(N)COCC1(F)F [Example 114, (R)-N-(3-(3-Amino-6,6-difluoro-5-methyl-2,5,6,7-tetrahydro-1,4-oxazepin-5-yl)-4-fluorophenyl)-4-chloro-1-(difluoromethyl)-1H-pyrazole-3-carboxamide]	9.68	4.9
